Entries after “also recorded” stand apart in the source; their conditions may differ. Structures can show the parent of a compound that is named as a salt.
Key:
[1] = Salt selection screens of Formula V free base (organic solvents, aqueous, concentrated acids; XRPD); type: physicochemical; settings: for XRPD post 1 day maturation / XRPD post 4 days maturation: HCl salt screen, HCl 1.1 equivalents
Procedure: Example 8: Salt Selection: Preparation of the hydrochloride salt was performed in the 20 solvents used for the solubility screen in order to select the optimal solvents for the salt screen. Formula V free base (ca. 10 mg) was suspended in the selected solvents (50 volumes; 500 µl) with stirring at 40°C. HCl (1.1 equivalents; […] in THF) was added, and the temperature was maintained for 30 minutes. […] The experiments were left cycling for further three days. […] Table 2. Results of HCl salt screen from 20 different solvents
Formula V free base (ca. 30 mg) was suspended in selected solvents (THF, nitromethane, acetonitrile and MEK; 50 volumes, 1.5 mL) at 50°C with stirring. The corresponding acid (1 equivalent) was added and the samples were stirred for 30 minutes, prior to ramping at 1 °C -min_1 to 25°C. The samples were placed in a shaker and subjected to heating/cooling cycles, between room temperature and 50°C, with four hours at each condition. Table 3. Input materials used for the salt screen
Further solvent (25 volumes) was added, and the suspensions were allowed to cycle for four more days. […] The samples were stored in a shaker and subjected to heating/cooling cycles, between room temperature and 50°C, with four hours at each condition for one week. […] Water (10% for MeCN, and 5% for THF, MEK and nitromethane, based on ca. 1.5 mL solvent) was added and the samples were cycled for a further 5 days. […] Table 4. XRPD results from the salt screen in acetonitrile.
An aqueous screen was performed. […] Table 11. Aqueous salt screen
The preparation of salts was conducted by dissolution in concentrated aqueous inorganic acids followed by precipitation with THF. Two procedures were performed, on 10 mg or 50 mg scale, investigating the effect of the order of addition of THF on the product produced.
Procedure A: Formula V free base (ca. 10 mg) was dissolved in the corresponding concentrated acid (50 µl) with stirring at room temperature and was added dropwise over THF (500 µl). Samples using HBr and HCl yielded solids and were shaken for 10 minutes and the solid was vacuum filtered, and dried under suction. H3PO4 yielded a solution that was subjected to heating/cooling cycles between room temperature and 50°C, four hours under each condition for 7 days. Procedure B: Formula V free base (ca. 50 mg) was dissolved in the corresponding concentrated acids (250 µl) with stirring at room temperature. THF (2.5 mL) was added dropwise to the solutions, and precipitation started. The samples were shaken for 30 minutes before being placed at 2-8°C for ca. 16 hours. HBr and HCl produced solids, which were vacuum filtered, washed with THF, dried under suction and under vacuum at 40°C for 16 hours. Table 13. Results from the salt screen from concentrated aqueous acids

[2] = Solid form stability of forms of compound of formula (IV) (Temperature / Humidity Controlled XRPD, storage, suspension); type: physicochemical
Procedure: The term"XRPD" denotes the analytical method of X-Ray Powder Diffraction. XRPD patterns were recorded at ambient conditions in transmission geometry with a STOE STADI P diffractometer (Cu K alpha radiation source, primary monochromator, position sensitive detector, angular range 3° to 42° 2Theta, approximately 60 minutes total measurement time). The repeatability of the angular values is in the range of 2Theta ±0.2°. The term "approximately" given in combination with an angular value denotes the repeatability which is in the range of 2Theta ±0.2°. The samples were prepared and analyzed without further processing (e.g. grinding or sieving) of the substance. The relative XRPD peak intensity is dependent upon many factors such as structure factor, temperature factor, crystallinity, polarization factor, multiplicity, and Lorentz factor. Relative intensities may vary considerably from one measurement to another due to preferred orientation effects. Humidity Controlled XRPD analyses were performed in reflection geometry with a Siemens D5000 Diffractometer (Cu radiation source, Ni K beta filter, Scintillation detector, angular range 3° to 42° 2Theta, approximately 180 minutes total measurement time per humidity level). The diffractometer is equipped with an MRI (Materials Research Instruments) humidity chamber. The humidity within the chamber is adjusted with an ANSYCO humidity controller (SYCOS H-HOT). For single crystal structure analysis a single crystal sample was mounted in a nylon loop on a goniometer and measured at ambient conditions. Alternatively, the crystal was cooled in a nitrogen stream during measurement. Data were collected on a GEMINI R Ultra diffractometer from Oxford Diffraction. Cu-radiation of 1.54 A wavelength was used for data collection. Data was processed with the Oxford Diffraction CRYSALIS software. The crystal structure was solved and refined with standard crystallographic software. In this case the program ShelXTL from Bruker AXS (Karlsruhe) was used. The abbreviation "FWHM" denotes the full width at half maximum, which is a width of a peak (e.g. appearing in a spectrum, particularly in an XRPD pattern) at its half height. The term "sharp Bragg diffraction peak" in connection with X-ray diffraction patterns denotes a peak which is observed if Bragg' s law of diffraction is fulfilled. Generally, the FWHM of a sharp Bragg diffraction peak is less than 0.5° 2-theta. The term "amorphous halo" in connection with X-ray diffraction patterns denotes an approximately bell- shaped diffraction maximum in the X-ray powder diffraction pattern of an amorphous material. The FWHM of an amorphous halo is on principle larger than the FWHM of the peak of crystalline material. The terms "FTIR" and "IR" denote the analytical method of infrared spectroscopy. The IR-spectra of the samples are recorded as film of a Nujol suspension consisting of approx. 5 mg of sample and approx. 5 mg of Nujol (mineral oil) between two sodium chloride plates (cross section 13 mm) in transmittance with a FTIR- spectrometer. The spectra were recorded in spectral range between 4000 cm"1 and 600 cm"1, resolution 2 cm"1, and 300 coadded scans on a Magna 860 (thermo/Nicolet) equipped with a DTGS detector. The term "Raman" denotes the analytical method of Raman spectroscopy. For recording Raman spectra, the samples were spread on a glass slide. Raman spectra were recorded in the range of 150-3800 cm"1 with an ARAMIS (HoribaJobinYvon) Raman microscope equipped with a Peltier cooled CCD detector, at excitation of 633 nm, a 1200 1/mm grating, a x50 objective and with 3 exposures of 3s, or 7s for weak Raman scatterers. The term "DSC" denotes the analytical method of Differential Scanning Calorimetry. DSC thermograms were recorded using a Mettler-Toledo™ differential scanning calorimeter DSC820, DSC821 or DSC1 with a FRS05 sensor. […]

[3] = salt screen from concentrated aqueous acids, Formula V free base, Procedure A
[4] = salt screen from concentrated aqueous acids, Formula V free base, Procedure B
[5] = solvent 1-4-Dioxane (entry -13)
[6] = solvent Acetonitrile (entry -04)
[7] = HBr salt obtained in the salt screen, Acetonitrile
[8] = HBr salt obtained in the salt screen, THF
[9] = salts from concentrated acids, second Details column (presumably Procedure B), listed as HBr salt
[10] = salts from concentrated acids, second Details column (presumably Procedure B), listed as HCl salt

Structure (SMILES): Br [HBr]
- Observations after adda of THF [1, 3]: While suspension
- Observations after adda of THF [1, 4]: White suspension

Structure (SMILES): Cc1onc(-c2ccc(F)cc2)c1COc1ccc(C(=O)N2CCS(=O)(=O)CC2)cn1 [Form A ({drug4a}), (1,1-dioxo-1lambda6-thiomorpholin-4-yl)-{6-[3-(4-fluoro-phenyl)-5-methyl-isoxazol-4-ylmethoxy]-pyridin-3-yl]-methanone]
- thermodynamic stability of the solid form [2]: metastable polymorph
- solid form changes at elevated temperature ([2]; Temperature Controlled XRPD): do not show solid form changes

Structure (SMILES): Nc1nc2cc(-c3ccc4ncc(C(=O)N5CCOCC5)n4c3)ccc2o1 [compound of Formula V, (6-(2-aminobenzo[d]oxazol-5-yl)imidazo[1,2-a]pyridin-3-yl)(morpholino)methanone]
- XRPD post 1 day maturation [1, 5]: New peaks free base (loss of crystallinity)
- XRPD post 4 days maturation [1, 5]: Amorphous
- XRPD post 1 day maturation ([1]; solvent Acetone (entry -05)): New peaks + free base
- XRPD post 4 days maturation ([1]; solvent Acetone (entry -05)): Free base
- XRPD post 1 day maturation [1, 6]: New peaks + free base
- XRPD post 4 days maturation [1, 6]: HCl Pattern 1
- XRPD post 1 day maturation ([1]; solvent BuOAc (entry -16)): New peaks + free base (loss of crystallinity)
- XRPD post 4 days maturation ([1]; solvent BuOAc (entry -16)): New peaks + free base (loss of crystallinity)
- XRPD post 1 day maturation ([1]; solvent DCM (entry -17)): New peaks + free base (loss of crystallinity)
- XRPD post 4 days maturation ([1]; solvent DCM (entry -17)): New peaks + free base (loss of crystallinity)
- XRPD post 1 day maturation ([1]; solvent DIPE (entry -10)): New peaks + free base
- XRPD post 4 days maturation ([1]; solvent DIPE (entry -10)): New peaks + free base
- XRPD post 1 day maturation ([1]; solvent EtOAc (entry -08)): New peaks + free base (loss of crystallinity)
- XRPD post 4 days maturation ([1]; solvent EtOAc (entry -08)): New peaks + free base
- XRPD post 1 day maturation ([1]; solvent Ethanol (entry -02)): New peaks + free base (loss of crystallinity)
- XRPD post 4 days maturation ([1]; solvent Ethanol (entry -02)): Amorphous
- XRPD post 1 day maturation ([1]; solvent IPA (entry -03)): New peaks + free base (loss of crystallinity)
- XRPD post 4 days maturation ([1]; solvent IPA (entry -03)): Amorphous
- XRPD post 1 day maturation ([1]; solvent IPAc (entry -09)): New peaks + free base (loss of crystallinity)
- XRPD post 4 days maturation ([1]; solvent IPAc (entry -09)): New peaks + free base
- XRPD post 1 day maturation ([1]; solvent MEK (entry -06)): New peaks + free base
- XRPD post 4 days maturation ([1]; solvent MEK (entry -06)): HCl Pattern 1
- XRPD post 1 day maturation ([1]; solvent MIBK (entry -07)): New peaks + free base
- XRPD post 4 days maturation ([1]; solvent MIBK (entry -07)): New peaks + free base
- XRPD post 1 day maturation ([1]; solvent MeNO2 (entry -14)): HCl Pattern I
- XRPD post 1 day maturation ([1]; solvent Methanol (entry -01)): New peaks + free base (loss of crystallinity)
- XRPD post 4 days maturation ([1]; solvent Methanol (entry -01)): Loss of crystallinity
- XRPD post 1 day maturation ([1]; solvent TBME (entry -11)): New peaks + free base
- XRPD post 4 days maturation ([1]; solvent TBME (entry -11)): New peaks + free base
- XRPD post 1 day maturation ([1]; solvent THF (entry -12)): New peaks + free base (loss of crystallinity)
- XRPD post 4 days maturation ([1]; solvent THF (entry -12)): HCl Pattern 1
- XRPD post 1 day maturation ([1]; solvent Toluene (entry -15)): New peaks + free base
- XRPD post 4 days maturation ([1]; solvent Toluene (entry -15)): New peaks + free base
- XRPD post 1 day maturation ([1]; solvent tBuOH (entry -18)): New peaks + free base
- XRPD post 4 days maturation ([1]; solvent tBuOH (entry -18)): Free base

Structure (SMILES): Nc1nc2cc(-c3ccc4ncc(C(=O)N5CCOCC5)n4c3)ccc2o1 [{drug5b}, (6-(2-aminobenzo[d]oxazol-5-yl)imidazo[1,2-a]pyridin-3-yl)(morpholino)methanone]
- Ion Chromatography ([1]; HBr salt from aqueous screen): 0.8 eqs Cl
- XRPD (vacuum dried) ([1]; HBr salt from aqueous screen): HBr Pattern 3
- Ion Chromatography [1, 7]: 1.1 eqs C 1
- XRPD (vacuum dried) [1, 7]: HBr Pattern 1, slight evidence of FB
- XRPD (vacuum dried) ([1]; HBr salt obtained in the salt screen, Nitromethane): HBr Pattern 1, slight evidence of FB
- Ion Chromatography [1, 8]: 0.8 eqs Cl
- XRPD (vacuum dried) [1, 8]: HBr Pattern 1
- Ion Chromatography ([1]; HBr salts from concentrated acids, first Details column (presumably Procedure A)): 1.7 eqs Br
- Ion Chromatography ([1]; HBr salts from concentrated acids, second Details column (presumably Procedure B)): 1.8 eqs Br
- XRPD (air dried) ([1]; salts from concentrated acids, first Details column (presumably Procedure A), listed as HBr salt): HBr Pattern 2
- XRPD (air dried) [1, 9]: HBr Pattern 4
- XRPD (vacuum dried) [1, 9]: HBr Pattern 4; also recorded: Slight changes, more peaks

Structure (SMILES): Nc1nc2cc(-c3ccc4ncc(C(=O)N5CCOCC5)n4c3)ccc2o1 [{drug5a}, (6-(2-aminobenzo[d]oxazol-5-yl)imidazo[1,2-a]pyridin-3-yl)(morpholino)methanone]
- Ion Chromatography ([1]; HCl salt from nitromethane): 0.8 eqs Cl
- XRPD (vacuum dried) ([1]; HCl salt from nitromethane): HCl Pattern 1
- Ion Chromatography ([1]; HCl salts from concentrated acids, first Details column (presumably Procedure A)): 1.6 eqs Cl
- Ion Chromatography ([1]; HCl salts from concentrated acids, second Details column (presumably Procedure B)): 1.7 eqs Cl
- XRPD (air dried) ([1]; salts from concentrated acids, first Details column (presumably Procedure A), listed as HCl salt): HCl Pattern 2
- XRPD (air dried) [1, 10]: HCl Pattern 2
- XRPD (vacuum dried) [1, 10]: HCl Pattern 2; also recorded: Slight changes, more peaks

Structure (SMILES): O=P(O)(O)O [Compound H3PO4]
- Maturation [1, 3]: Oil
- Observations after adda of THF [1, 3]: Solution
- Observations after adda of THF [1, 4]: Oil

Structure (SMILES): Cl [HCl]
- Observations after adda of THF [1, 3]: White suspension
- Observations after adda of THF [1, 4]: White suspension

Source: patent publication EP2792360A1, “(1aR,12bS)-8-cyclohexyl-11-fluoro-N-((1-methylcyclopropyl)sulfonyl)-1a-((3-methyl-3,8-diazabicyclo[3.2.1]oct-8-yl)carbonyl)-1,1a,2,2b-tetrahydrocyclopropa[d]indolo[2,1-a][2]benzazepine-5-carboxamide for use in treating HCV” (IP Gesellschaft für Management mbH, priority 2013, dated 2014)
